Results: patent publication US20250295617A1, “METABOLITES FOR TREATMENT AND PREVENTION OF AUTOIMMUNE DISEASE” (MONASH UNIVERSITY, priority 2016, published 2025)

Experiments:
female NOD mice = conditions: acetate in drinking water from 5 weeks of age
Protocol: To standardise microbiota, prior to beginning diets mice from multiple litters were mixed and randomly allocated to groups. The purified diets used were based on a balanced modification of the AIN93-G diet as described previously (Bajka et al., 2006). Mice were fed for 3-5 weeks starting at 3, 5 or 10 weeks of age. SCFAs in faeces, blood and caecal content were analysed as previously described in (Bajka et al., 2006). Diabetes was monitored as previously described (Mariño et al., 2009).
To determine whether oral administration of acetate (to increase its concentration in the circulation) could modulate disease progression, acetate was added to the drinking water of NOD female mice.

pancreatic islets = test: Insulitis scoring of pancreatic islets; format: in vivo, mouse; conditions: 10 weeks of age, 5 weeks after starting acetate treatment
Excerpt: Pancreatic tissue was processed and stained using standard procedures. For insulitis scoring, pancreata sections were taken at 3 […] (100 μm apart). At least 100 islets were scored from 5 to 15 mice. Islets were graded according to the following system: Grade 0—no indication of insulitis, Grade 1—<25% infiltration, Grade 2—25-50% infiltration, Grade 3—50-75% infiltration, and Grade 4—>75% infiltration.

SMILES: CC(=O)[O-].[Na+] [acetate, sodium acetate]
- development of diabetes (female NOD mice; vs controls): significantly delayed
- T1D incidence (female NOD mice; at age 30 weeks): 40%
- insulitis (islet infiltration) (pancreatic islets): more pancreatic islets without immune cell infiltration, and fewer islets with high-grade infiltration
